# Patent US20210128520A1, “NEUROPROTECTIVE ISOFLAVONE COMPOSITIONS AND METHODS” (UNM Rainforest Innovations, priority 2017, published 2021)
# “Also recorded” adds a separate entry of the source.
# Legend:
# [1] = tested on: primary cultured cortical neurons; assay: OGD/RO-induced cell death in primary cultured cortical neurons, LDH release assay; format: cell-based, rat; details: 2.5 μM of each isoflavone, pre-treatment, 4 h OGD + 20 h RO
# Procedure: Primary cultured cortical neurons were isolated from embryonic Sprague-Dawley rats (E17). After digested by 0.25% trypsin (Invitrogen Corp., Carlsbad, Calif.), cells were collected and suspended in Dulbecco's modified eagle medium (DMEM) containing 10% horse serum, 1% L-glutamine and antibiotic mixture. The resulting single cell suspensions were seeded on 24-well or 6-well plates pre-treated with poly-D-lysine (Sigma-Aldrich, St. Louis, Mo.). After seeded for four hours, medium was replaced with neurobasal medium containing 2% B27, 1% L-glutamine and antibiotics mixture and cell culture was maintained at 37° C. and 5% CO2.
# Both oxygen-glucose deprivation plus reoxygenation (OGD/RO) and excitotoxicity experiments were conducted. In OGD/RO experiments, primary cultured neurons were exposed to neurobasal medium without glucose and incubated in a hypoxia chamber (Billups-Rothenberg, Inc., San Diego, Calif.) perfused with a mixed gas containing 95% N2 and 5% CO2 until medium oxygen concentration reached 0.1%, which was monitored with a PA-10A paramagnetic 02 analyzer (Sable Systems International, North Las Vegas, Nev.). After cells were exposed to OGD at 37° C. for four hours, the medium was replaced with normal glucose-containing medium and the plates were put into normal culture condition for 20 hours for reoxygenation. In excitotoxicity experiments, primary cultured neurons were treated with L-glutamate (8 mM, Sigma-Aldrich, St. Louis, Mo.) for six hours. […]
# LDH release assay was performed for detecting cell death with Cytotoxicity Detection Kit (Invitrogen Corp., Carlsbad, Calif.). In brief, culture medium was collected and incubated with the reaction mixture for 30 minutes at room temperature (24° C.). […] The optical density of the solution was measured at 490 nm on a microplate reader (Model 3350, Bio-Rad Laboratories, Inc., Hercules, Calif.). The cell death rate was calculated by using the formula: Cell death rate (%)=(Experimental absorbance value−culture medium absorbance value)/(Triton-X 100-treated absorbance value−culture medium absorbance value)×100%.
# [2] = tested on: rat MCAO ischemia-reperfusion model; assay: MCAO cerebral ischemia-reperfusion model, infarct volume (TTC) and neurology score; format: in vivo; details: for infarct volume in comparison with vehicle group: 20 μmol/kg i.p., single isoflavone; for infarct volume in comparison with vehicle group / infarct volume: 1.5 h MCAO + 22.5 h reperfusion; for neurological function (neurological deficit score) versus vehicle group: 60 μmol/kg i.p.; for infarct volume: 60 μmol/kg i.p. 30 min before MCAO, vehicle 27.93%±7.1%
# Source text: Male adult Sprague-Daweley rats (250 g to 270 g) were obtained from Laboratorial Animal Unit, the University of Hong Kong (HKU) and University of New Mexico (UNM). All animal experiments were approved and regulated by the Committee on the Use of Live Animals in Teaching and Research, HKU and the Laboratory Animal Care and Use Committee, UNM. All efforts were made to minimize animal suffering and to reduce the number of animals used.
# Rats were subjected to MCAO to induce cerebral ischemia-reperfusion as previously described (Shen et al., 2006. J Neurochem 96(4):1078-1089). Briefly, rats were anaesthetized by inhalation of 5% isoflurane and maintained with 2% isoflurane in a mixture of 70% N2O and 30% 02. After vessels isolation, a 3/0 monofilament nylon suture (Johnson & Johnson Health Care Systems, Inc., Piscataway, N.J.) was inserted into the external carotid artery and advanced into the internal carotid artery and anterior cerebral artery to occlude the middle cerebral artery. After occlusion for 1.5 hours, the suture was removed to induce reperfusion and maintained for 22.5 hours. After operation, rats were transferred to intensive care incubator in which the temperature was kept at 37° C. until animals woke up completely.
# Isoflavones (C, F, and D) were dissolved in dimethyl sulfoxide (DMSO) and diluted with peanut oil to the indicated working solution and intraperitoneally (i.p.) injected to rats 30 minutes before suture insertion for MCAO. The same volume of DMSO and peanut oil were used as vehicle control. In parallel experiments, for mechanistic study, ER antagonist ICI 182780 or PI3K inhibitor LY-294002 was intracerebroventricularly (i.c.v.) injected into the rat lateral ventricle 60 minutes before ischemia onset. Briefly, after anaesthetization, rat was placed on a stereotaxic apparatus and fixed well. A 22-gauge, 12 mm stainless-steel guide cannula was inserted in the left lateral ventricle of the brain. The needle was inserted 4.5 mm deep, 1.5 mm lateral to sagiture and 0.8 mm posterior to bregma to reach the lateral ventricle. Then, ICI 182780 dissolved in DMSO (1 μM) or LY-294002 (10 mM) was slowly injected into lateral ventricle and the needle was kept for at least 30 seconds before removal. The same volume of DMSO was used as a negative control.
# After 24 hours of reperfusion, rat brains were isolated and sliced into coronal sections followed by staining with 2,3,5-triphenyltetrazolium chloride (TTC, Sigma-Aldrich, St. Louis, Mo.) at 37° C. for 20 minutes. The ischemic area was evaluated by calculating the hemispheric lesion area with ImageJ software (ImageJ-1.38x; Schneider et al., 2012. Nature methods 9(7):671-675), the relative infarct volume percentage (RIVP) was calculated as RIVP=IVA/TA×100%, IVA was the total infract area of five coronal sections, TA was the total area of five sections.
# Neurological function was determined by 9-scale methods containing dysfunctional paw test, postural reflex test and circling test according to a previous report (Bederson et al., 1986. Stroke 17(3):472-476). Each score was summed and represented as a single overall neurological score (0 to 8).
# [3] = AR extract orally administrated to rats; cited from earlier work
structure (smiles),measurement,setting,value
"COc1ccc(-c2coc3cc(O)ccc3c2=O)cc1O [C, calycosin]","reduction in the rate of cell death as compared to vehicle control, OGD/RO",[1],2%
same,infarct volume in comparison with vehicle group,[2],no statistical difference; also recorded: no significant effect
same,neurological function (neurological deficit score) versus vehicle group,[2],much improved neurological function
same,infarct volume,[2],10.99±6.07%
same,effect of ICI 182780 co-treatment on neuroprotective effect on infarct volume,"[2]; ICI 182780 i.c.v. 1 h before ischemia, isoflavone i.p. 30 min before ischemia",partially blocked
"O=c1c(-c2ccc(O)cc2)coc2cc(O)ccc12 [D, daidzein]","reduction in the rate of cell death as compared to vehicle control, OGD/RO",[1],2%
same,infarct volume in comparison with vehicle group,[2],no statistical difference
same,infarct volume in comparison with vehicle group,[2]; listed as daidzein,no significant effect
same,neurological function (neurological deficit score) versus vehicle group,[2],much improved neurological function
same,infarct volume,[2],13.84±0.95%
"COc1ccc(-c2coc3cc(O)ccc3c2=O)cc1 [F, formononetin]","reduction in the rate of cell death as compared to vehicle control, OGD/RO",[1],2%
same,fraction metabolized into D and its conjugates,[3],about 50%
same,infarct volume in comparison with vehicle group,[2],no significant effect
same,infarct volume,[2],10.76±4.21%
